Results as given in patent US9115072B2, “Compounds and method for reducing uric acid” (WELLSTAT THERAPEUTICS CORPORATION, priority 2008, dated 2015).

Legend:
[1] = system: mice treated with the uricase inhibitor potassium oxonate; test: Uric acid excretion in urine of mice treated with the uricase inhibitor potassium oxonate; format: in vivo, mouse
From the text: The model to induce hyperuricemia involves the use of the uricase (urate oxidase) inhibitor potassium oxonate that causes a delay in the degradation of uric acid to allantoin. Humans have little or no uricase activity, so inhibition of this enzyme with potassium oxonate makes mouse uric acid processing more similar to that of humans. Male 11-week old C57/B16 mice (Harlan, Frederick, Md.) were used in the studies (8 per experimental group). Mice were receiving standard rodent chow that was removed one hour before administration of potassium oxonate. Mice were given an intraperitoneal injection (i.p.) of potassium oxonate (300 mg/kg) that was suspended in 0.5% hydroxypropylmethylcellulose (HPMC). […] Urine collection was performed at 1, 3 and 5 hours after drug treatments and uric acid was measured with a colorimetric assay (BioVision Research Products, Mountain View, Calif.).

[2] = system: healthy, normal men and women; test: Single oral dose clinical study, blood/plasma uric acid levels (Examples 1 and 4); format: in vivo, human; settings: for Mean Percent Change (blood uric acid levels): before vs 24 hours after administration
Procedure: Five groups of 4 healthy, normal men and women received a single, oral administration of escalating doses of Compound BI (n=3 per group) or placebo capsules (n=1 per group) in a randomized, double blind clinical study. Blood uric acid levels were measured before and 24 hours after administration of study treatment. Compound BI was administered at doses of 50, 100, 200, 400 or 800 mg.
Plasma samples taken immediately prior to and at 1, 2, 4, 6, 12 and 24 hours after a single, oral administration of a test compound to 4 healthy, normal men and women in each of three groups as described above in Example 1 were analyzed to determine uric acid levels. Compound BI (n=3 per group) or placebo capsules (n=1 per group) were administered in a randomized, double blind clinical study. Plasma samples taken at the time points indicated from patients receiving Compound BI at doses of 200, 400 or 800 mg were stored at −70° C. and analyzed at a later time.

[3] = system: healthy normal men and women; test: Seven-day once/twice daily dosing clinical study, blood/plasma uric acid levels (Examples 2 and 5); format: in vivo, human; settings: for Percent Change in Uric Acid Levels Following a Single Administration of Study Treatment, Mean Percent Change: 24 hours after the first administration; for Percent Change in Uric Acid Levels Following a Daily Administration of Study Treatment for Seven Days, Mean Percent Change: after 7 consecutive days; for Effect on blood uric acid levels (in words): 400 mg twice per day or 800 mg once per day groups
Procedure: Two groups of 8 healthy normal men and women received oral administration of either 800 mg Compound BI once per day (n=6 per group) or 400 mg Compound BI twice per day (n=6 per group) or placebo capsules (n=2 per group) in a randomized, double blind clinical study. Blood uric acid levels were measured before administration of study treatment, 24 hours after the first administration of study treatment and after 7 consecutive days of study treatment administration.
Sixteen men and women participating in a clinical study were randomly assigned to receive either placebo capsules (n=4 subjects), 400 mg Compound BI twice per day (n=6 subjects), or 800 mg Compound BI once per day (n=6 subjects) for seven consecutive days. Plasma samples taken prior to (Time 0) and at 1, 2, 4, 9, 11, 13, 18 and 24 hours after the initial administration of the test article on Day 7 of the study were stored at −70° C. and later analyzed for uric acid. (This Example 5 is a continuation of the experiment described in Example 2.)

human URAT1 = molecular target: T1, human URAT1 (Homo sapiens, UniProt Q96S37); test: URAT1 inhibition assay, [8-14C] urate uptake in hURAT1-HEK cells; format: cell-based; settings: 50 μM [8-14C] urate
T1 construct: The full-length hURAT1 cDNA was obtained from the vector pCMV6-XL5 and subcloned into the expression vector pCMV6-Neo
T1 sequence (Q96S37 1-553): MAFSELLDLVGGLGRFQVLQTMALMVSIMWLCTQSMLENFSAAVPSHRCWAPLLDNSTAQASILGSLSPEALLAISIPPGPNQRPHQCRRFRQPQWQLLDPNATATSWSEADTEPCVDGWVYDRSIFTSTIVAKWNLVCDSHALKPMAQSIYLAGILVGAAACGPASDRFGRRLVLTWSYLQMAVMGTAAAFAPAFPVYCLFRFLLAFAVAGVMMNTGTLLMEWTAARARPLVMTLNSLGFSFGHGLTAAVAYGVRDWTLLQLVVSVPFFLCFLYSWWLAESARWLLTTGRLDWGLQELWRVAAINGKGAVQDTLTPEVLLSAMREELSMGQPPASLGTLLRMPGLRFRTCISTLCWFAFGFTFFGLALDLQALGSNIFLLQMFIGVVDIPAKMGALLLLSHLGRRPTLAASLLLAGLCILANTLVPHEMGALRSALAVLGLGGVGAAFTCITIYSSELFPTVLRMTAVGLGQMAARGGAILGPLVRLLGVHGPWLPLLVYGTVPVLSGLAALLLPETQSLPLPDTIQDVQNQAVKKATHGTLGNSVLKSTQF
Procedure: A suitable assay involves transfection of cells (e.g. human embryonic kidney cells; “HEK”) with a vector encoding human URAT1, followed by determination of the ability of transfected cells to take up radiolabeled uric acid. The activity of compounds as URAT1 inhibitors is evaluated by their ability to block uric acid uptake by transfected cells.
Urate (50-60 mCi/mmol; American Radio Chemicals, Cat. No. ARC0513).
Plasmid vector pCMV6-XL5 containing hURAT1 cDNA (Cat. No. SC125624) and the expression vector pCMV6-Neo (Cat. No. pCMVNEO) were obtained from OriGene Technologies, Inc. The full-length hURAT1 cDNA was obtained from the vector pCMV6-XL5 and subcloned into the expression vector pCMV6-Neo to create the hURAT1 expression plasmid pCMV6-hURAT1. The sequences were verified by automatic DNA sequencing.
For transfection experiments, cells were plated on 60 mm dishes in 1 ml media per dish. […] Stable transfectants expressing hURAT1 (herein after referred as hURAT1-HEK cells) or cells having only the expression vector pCMV6-Neo (herein after referred as mock-HEK cells) were verified using reverse transcription polymerase chain reaction (RT-PCR) methods.
Before the uptake assay started, the culture medium was removed and the cells were incubated for 5 min in 0.6 ml of HBSS. After that HBSS was removed, the prepared reaction solutions were added into each well and incubated for 5 min at room temperature. Then the reaction solution was removed, cells were washed twice with 0.6 ml of cold HBSS and lysed with 0.2 ml of 0.1 M NaOH for 20 min. […] Test compounds were dissolved in DMSO and the same concentration of DMSO was added into the wells of mock-HEK cells and the hURAT1-HEK cells that didn't contain test compounds. For each test compound, the uptake assay was performed 2 times and carried out in triplicate. Urate uptake of the cells for each test condition was presented as the average percent inhibition in comparison to the DMSO control. The radioactivity values obtained for the wells that contained DMSO were taken as 100% uptake of the cells. The observed concentration-percent inhibition data were fitted to a sigmoidal concentration-effect model, where: IC50^Slope=[(100*Conc^Slope)/% Inhibition]−Conc^Slope
Additional drug concentrations were tested for determination of IC-50 values for some compounds (Table 6).

Cc1cccc(C)c1COc1cccc(C(=O)CCC(=O)O)c1 [Compound BI, 4-(3-(2,6-Dimethylbenzyloxy)phenyl)-4-oxobutyric acid]
Urine Uric Acid ([1]; 100 mg/kg p.o. after oxonate 300 mg/kg i.p., urine collected between 3 and 5 hours after drug): 293 mg/dL
Effect on uric acid in urine versus the Oxonate control group (in words) ([1]; urine collected between 3 and 5 hours after drug administration): significant increase in excreted uric acid
Effect on plasma uric acid levels over 24 hours (in words) ([2]; single dose 200, 400 or 800 mg, FIG. 2): significant, dose-dependent reductions
Mean Percent Change (blood uric acid levels) ([2]; single oral dose 50 mg): −8.8%
Mean Percent Change (blood uric acid levels) ([2]; single oral dose 100 mg): −13.4%
Mean Percent Change (blood uric acid levels) ([2]; single oral dose 200 mg): −18.9%
Mean Percent Change (blood uric acid levels) ([2]; single oral dose 400 mg): −35.0%
Mean Percent Change (blood uric acid levels) ([2]; single oral dose 800 mg): −32.7%
Effect on blood uric acid levels (in words) ([2]; single oral dose 50, 100, 200, 400 or 800 mg, 24 hours): significant, dose-dependent reduction
Percent Change in Uric Acid Levels Following a Single Administration of Study Treatment, Mean Percent Change ([3]; 400 mg bid): −54.0%
Percent Change in Uric Acid Levels Following a Daily Administration of Study Treatment for Seven Days, Mean Percent Change ([3]; 400 mg bid): −56.7%
Plasma uric acid levels at Time 0 on Day 7 compared to Time 0 on the first day and to placebo (in words) ([3]; 400 mg twice per day or 800 mg once per day for seven days, FIG. 3): significantly reduced
Percent Change in Uric Acid Levels Following a Single Administration of Study Treatment, Mean Percent Change ([3]; 800 mg qd): −45.3%
Percent Change in Uric Acid Levels Following a Daily Administration of Study Treatment for Seven Days, Mean Percent Change ([3]; 800 mg qd): −53.2%
Effect on blood uric acid levels (in words) ([3]; daily administration for 7 days): significant reduction
Effect on blood uric acid levels (in words) ([3]; single dose): significant reduction
IC50 (human URAT1): 0.95 µM
inhibition at 10 µM (human URAT1; drug concentration typically 10 micromolar, read-out: % of Inhibition (uric acid uptake)): 86.1%
